From patent US4053481A, “2-Aryl-3,4-diphenylisoxazolin-5-ones” (G. D. Searle & Co., priority 1976, dated 1977) come the findings set out here.

The subject of the experiment is microsomal-cytosol fraction. The experiment is described as follows: % inhibition of C14-acetate incorporation into lipid fractions (fatty acid and cholesterol biosynthesis) in rat liver microsomal-cytosol fraction. The format is biochemical, Male Charles River rats. The following applies: 0.001 M; 37° C., 90 minutes. How it is done:
The instant compounds are useful as pharmacological agents as evidenced by their ability to reduce serum triglyceride and cholesterol levels as determined in the following assay:
Male Charles River rats (160-200 g.), having had free access to food and water, are administered a standard diet containing 2% DEAE - cellulose (Reeve Angel anion exchange resin) for 5 days. The rats then are sacrificed and their livers removed immediately. The livers are homogenized in a medium consisting of 0.1 M potassium phosphate, pH 7.4, 0.004 m MgCl2 and 0.03 M nicotinamide, and the microsomalcytosol fraction obtained by centrifugation. 2.0 Ml. of the microsomal-cytosol fraction is incubated, at 37° C. for 90 minutes for fatty acid measurements and for measurement of cholosterol biosynthesis, in a standard assay mixture containing 10 micromoles of sodium acetate containing 0.1 microcuries of 2-C^14 -acetate, 2 micromoles nicotinamide adenine dinucleotide, 2 micromoles nicotinamide adenine dinucleotide phosphate, and 20 micromoles glucose-6-phosphate, and test compound, initially at 0.001 M, is added. All assays are run in duplicate with the assay to which no test compound is added serving as control. Heat inactivated homogenate serves as blank for both control and test systems.
Reaction rate is determined per unit of time by the amount of C^14 label incorporated into the lipid fraction from the radioactive acetate. Results are reported as % inhibition (i.e. (Difference in Reaction Rate between Control and Test Compound/Reaction Rate for Control) × 100).
Typical results are shown below in Table I for the product of Example 2, referred to as Compound I. Also represented are the results for Atromid S® , a brand of clofibrate, marketed as a hypocholesterolemic agent.

Take `CCOC(=O)C(C)(C)Oc1ccc(Cl)cc1` [Atromid-S, clofibrate]: the “% Inhibition, Fatty Acid Fraction” value is reported as 24%; the “% Inhibition, Fraction (first column, qualifier not given)” value is 28%; the “% Inhibition, Non-Lipid Fraction” value is 42%.
